Patent US7767789B2, “Truncated proteins as cancer markers” (University Hopitals of Cleveland, priority 2005, dated 2010)

Target: T1, full-length human P2X7 receptor (HEK-293-hP2X7-R cells) (Homo sapiens, UniProt Q99572)
T1 construct: For transfections, the full length human P2X7 receptor; expressed in transfected cells; host or cells: HEK-293, pcDNA-6 vector
T1 sequence (Q99572 1-595): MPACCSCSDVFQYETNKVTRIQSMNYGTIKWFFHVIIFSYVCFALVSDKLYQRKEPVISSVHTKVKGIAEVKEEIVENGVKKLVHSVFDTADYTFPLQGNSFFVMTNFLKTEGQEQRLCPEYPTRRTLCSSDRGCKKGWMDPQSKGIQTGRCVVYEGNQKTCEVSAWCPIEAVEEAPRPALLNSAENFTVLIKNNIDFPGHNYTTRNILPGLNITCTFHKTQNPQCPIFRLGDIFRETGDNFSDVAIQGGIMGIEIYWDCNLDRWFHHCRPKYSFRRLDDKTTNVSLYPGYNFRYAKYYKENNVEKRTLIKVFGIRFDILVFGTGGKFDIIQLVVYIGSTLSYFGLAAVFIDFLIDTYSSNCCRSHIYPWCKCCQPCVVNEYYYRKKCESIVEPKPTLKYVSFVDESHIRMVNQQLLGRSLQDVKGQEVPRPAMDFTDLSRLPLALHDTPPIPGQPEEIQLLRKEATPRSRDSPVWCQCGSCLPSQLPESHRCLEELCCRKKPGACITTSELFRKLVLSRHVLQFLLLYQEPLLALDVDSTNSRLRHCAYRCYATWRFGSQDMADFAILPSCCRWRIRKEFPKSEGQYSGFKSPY
Assay: Cytosolic calcium in HEK-293-hP2X7-R and wild-type HEK293 cells on filters
Format: cell-based

2′-3′-O-(4-benzoylbenzoyl)adenosine 5′-triphosphate [BzATP]
sustained cytosolic calcium increase: induced sustained Ci increase
